Among the data in US8877801B2, “Compounds and compositions as selective estrogen receptor degraders” (Novartis AG, priority 2013, dated 2014) are IC50 values, retold here.

A word on the IC50: it is the point on the concentration scale where inhibition reaches its midpoint.

The target in this test is T1, ER (Homo sapiens, UniProt P03372).
T1 construct: transfected in MCF7 cells (containing endogenous ER); endogenous in cells; host or cells: MCF7 cells
T1 sequence (P03372 1-595): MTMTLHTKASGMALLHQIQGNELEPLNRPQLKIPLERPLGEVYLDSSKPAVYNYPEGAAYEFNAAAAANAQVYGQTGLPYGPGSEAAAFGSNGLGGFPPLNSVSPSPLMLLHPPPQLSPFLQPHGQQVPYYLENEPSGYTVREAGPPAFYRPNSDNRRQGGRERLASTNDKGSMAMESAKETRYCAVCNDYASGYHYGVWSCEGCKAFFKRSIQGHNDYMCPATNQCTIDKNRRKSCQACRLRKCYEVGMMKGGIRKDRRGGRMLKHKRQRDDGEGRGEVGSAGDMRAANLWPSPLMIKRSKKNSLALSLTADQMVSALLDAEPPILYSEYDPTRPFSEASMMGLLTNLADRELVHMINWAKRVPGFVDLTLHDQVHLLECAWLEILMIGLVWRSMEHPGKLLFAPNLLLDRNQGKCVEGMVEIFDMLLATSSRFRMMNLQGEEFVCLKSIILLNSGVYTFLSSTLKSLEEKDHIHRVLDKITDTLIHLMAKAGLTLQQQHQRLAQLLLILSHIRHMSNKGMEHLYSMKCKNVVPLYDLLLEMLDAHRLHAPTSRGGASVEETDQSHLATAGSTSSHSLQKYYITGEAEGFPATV
The test is described as follows: ER transcription assay (MCF7 cells), ERE-luciferase reporter. The test is classed as cell-based. As to conditions: MCF7 cells, ER reporter gene, 0.1 nM 17β estradiol, 24 hours; read-out: MCF7 IC50 (inflection point of the inhibition of transcription in MCF7 cells). The text has this:
ER Transcription Assay (MCF7 Cells)
The ER transcription assay is a reporter assay that is based on the ability of ER to induce transcription from a luciferase reporter gene containing estrogen response elements (EREs) in the promoter/enhancer region. When the reporter gene is transfected in MCF7 cells (containing endogenous ER), transcription is reflected by the level of luciferase expression.
A day before transfection, cells are split into a T75 flask at a cell density of 300,000 cells/mL (10 mL total) and allowed to attach overnight in a humidified CO2 incubator at 37° C.
Approximately 20 ug DNA is mixed in OptiMEM (Invitrogen) to a total volume of 650 μL. Following incubation, the OptiMEM-DNA mixture is added to the OptiMEM-Lipofectin mix and incubated for 15 minutes at 37° C. The DNA-Lipofectin mixture is then added directly to the T75 flask and the flask is returned to the incubator.
After overnight incubation, compound is added to individual wells of a 96-well plate in a 10 μL volume of media at 10× concentration along with 17β estradiol whose final concentration is 0.1 nM. Normally, DMSO (used as a vehicle) is included to achieve a final concentration of 0.1% when added to the cells. Transfected cells are trypsinized, resuspended in DMEM/F12/10% charcoal-stripped serum and added to the 96-well plate at 25,000 cells/well in 90 μL of media. The plate is then returned to the incubator for 24 hours.
After incubation with compounds for 24 hours, Firefly and Renilla luciferase activities are measured to determine ER transcriptional activity. Media is removed from 96-well plates by decanting and blotting on paper towels.
One second total read time after a one second delay.
One second total read time after one second delay. If Firefly luciferase signal is high, Renilla assay must be done an hour after the Firefly assay due to incomplete squelching of Firefly signal.
The data describing the antagonist and degradation properties for the examples is compiled in table 10. The column titled MCF7 IC50 reports the inflection point of the inhibition of transcription in MCF7 cells as described above. Percentage ERα remaining reports the remaining ERα protein measured at 10 μM concentration of the ligand as described above. The column ERα IC50 reports the inflection point of the degradation in response to the ligand concentration.
In the case of `O=C(O)CCc1ccc(Oc2c(-c3ccc(O)cc3)sc3cc(O)ccc23)cc1` [Example 1, 3-(4-((6-hydroxy-2-(4-hydroxyphenyl)benzo[b]thiophen-3-yl)oxy)phenyl)propanoic acid], the IC50 amounted to 457 nM. For `O=C(O)/C=C/c1ccc(Oc2c(-c3ccc(C(F)(F)F)cc3)sc3cc(O)ccc23)cc1` [Example 3, (E)-3-(4-((6-hydroxy-2-(4-(trifluoromethyl)phenyl)benzo[b]thiophen-3-yl)oxy)phenyl)acrylic acid] the value was 941 nM; for `CC(C)c1ccccc1-c1sc2cc(O)ccc2c1Oc1ccc(/C=C/C(=O)O)cc1` [Example 4, (E)-3-(4-((6-hydroxy-2-(2-isopropylphenyl)benzo[b]thiophen-3-yl)oxy)phenyl)acrylic acid], 6 nM; for `Cc1ccccc1-c1sc2cc(O)ccc2c1Oc1ccc(/C=C/C(=O)O)cc1` [Example 5, (E)-3-(4-((6-hydroxy-2-(o-tolyl)benzo-[b]thiophen-3-yl)oxy)-phenyl)acrylic acid], 89 nM. For `O=C(O)/C=C/c1ccc(Oc2c(-c3ccc(Cl)cc3)sc3cc(O)ccc23)cc1` [Example 6, (E)-3-(4-((2-(4-chlorophenyl)-6-hydroxybenzo[b]-thiophen-3-yl)oxy)phenyl)-acrylic acid] the value was 3100 nM; for `O=C(O)/C=C/c1ccc(Oc2c(-c3cccc(F)c3)sc3cc(O)ccc23)cc1` [Example 7, (E)-3-(4-((2-(3-fluorophenyl)-6-hydroxybenzo[b]-thiophen-3-yl)oxy)phenyl)-acrylic acid], 713 nM.

As to `O=C(O)/C=C/c1ccc(Oc2c(-c3ccccc3C(F)(F)F)sc3cc(O)ccc23)cc1` [Example 8, (E)-3-(4-((6-hydroxy-2-(2-(trifluoromethyl)-phenyl)benzo[b]-thiophen-3-yl)oxy)phenyl)-acrylic acid], the IC50 was 23 nM. For `O=C(O)/C=C/c1ccc(Oc2c(-c3ccccc3Cl)sc3cc(O)ccc23)cc1` [Example 9, (E)-3-(4-((2-(2-chlorophenyl)-6-hydroxybenzo[b]-thiophen-3-yl)oxy)phenyl)-acrylic acid] the value was 407 nM; for `Cc1cc(C(F)(F)F)ccc1-c1sc2cc(O)ccc2c1Oc1ccc(/C=C/C(=O)O)cc1` [Example 10, (E)-3-(4-((6-hydroxy-2-(2-methyl-4-(tri-fluoromethyl)phenyl)-benzo[b]thiophen-3-yl)oxy)phenyl)acrylic acid], 207 nM. Regarding `O=C(O)/C=C/c1ccc(Oc2c(-c3ccc(C(F)(F)F)cc3C(F)(F)F)sc3cc(O)ccc23)cc1` [Example 11, (E)-3-(4-((2-(2,4-bis(trifluoromethyl)-phenyl)-6-hydroxy-benzo[b]thiophen-3-yl)oxy)phenyl)-acrylic acid], the 50% inhibitory concentration (IC50) came out at 53 nM. Regarding `Cc1cccc(-c2sc3cc(O)ccc3c2Oc2ccc(/C=C/C(=O)O)cc2)c1C` [Example 13, (E)-3-(4-((2-(2,3-dimethylphenyl)-6-hydroxybenzo[b]-thiophen-3-yl)oxy)phenyl)-acrylic acid], the IC50 was determined as 151 nM. For `Cc1ccc(C)c(-c2sc3cc(O)ccc3c2Oc2ccc(/C=C/C(=O)O)cc2)c1` [Example 14, (E)-3-(4-((2-(2,5-dimethylphenyl)-6-hydroxybenzo[b]-thiophen-3-yl)oxy)phenyl)-acrylic acid] the value was 238 nM. For the molecule `Cc1noc(C)c1-c1sc2cc(O)ccc2c1Oc1ccc(/C=C/C(=O)O)cc1` [Example 15, (E)-3-(4-((2-(3,5-dimethylisoxazol-4-yl)-6-hydroxybenzo-[b]thiophen-3-yl)oxy)-phenyl)acrylic acid], the IC50 was 404 nM. Consider `Cc1c(O)cccc1-c1sc2cc(O)ccc2c1Oc1ccc(/C=C/C(=O)O)cc1` [Example 16, (E)-3-(4-((6-hydroxy-2-(3-hydroxy-2-methyl-phenyl)benzo[b]-thiophen-3-yl)oxy)phenyl)-acrylic acid], for which the IC50 was 128 nM. As for `CCc1ccccc1-c1sc2cc(O)ccc2c1Oc1ccc(/C=C/C(=O)O)cc1` [Example 18, (E)-3-(4-((2-(2-ethylphenyl)-6-hydroxybenzo[b]-thiophen-3-yl)oxy)phenyl)-acrylic acid], the 50% inhibitory concentration (IC50) turned out to be 36 nM. Next, `CC(=O)c1ccccc1-c1sc2cc(O)ccc2c1Oc1ccc(/C=C/C(=O)O)cc1` [Example 19, (E)-3-(4-((2-(2-acetylphenyl)-6-hydroxybenzo[b]-thiophen-3-yl)oxy)phenyl)-acrylic acid]: 218 nM; `CC(C)(C)c1ccccc1-c1sc2cc(O)ccc2c1Oc1ccc(/C=C/C(=O)O)cc1` [Example 20, (E)-3-(4-((2-(2-(tert-butyl)phenyl)-6-hydroxybenzo[b]-thiophen-3-yl)oxy)phenyl)-acrylic acid]: 36 nM; `O=C(O)/C=C/c1ccc(Oc2c(-c3ccccc3[N+](=O)[O-])sc3cc(O)ccc23)cc1` [Example 21, (E)-3-(4-((6-hydroxy-2-(2-nitrophenyl)-benzo[b]thiophen-3-yl)oxy)phenyl)-acrylic acid]: 313 nM. Consider `CC(C)(C)c1ccc(-c2sc3cc(O)ccc3c2Oc2ccc(/C=C/C(=O)O)cc2)cc1` [Example 22, (E)-3-(4-((2-(4-(tert-butyl)phenyl)-6-hydroxybenzo[b]-thiophen-3-yl)oxy)phenyl)-acrylic acid], for which the IC50 worked out at 853 nM. For `Cc1cc(C)cc(-c2sc3cc(O)ccc3c2Oc2ccc(/C=C/C(=O)O)cc2)c1` [Example 23, (E)-3-(4-((2-(3,5-dimethylphenyl)-6-hydroxybenzo[b] - thiophen-3-yl)oxy)phenyl)-acrylic acid] the value was 748 nM. Take `C[C@H](O)c1ccccc1-c1sc2cc(O)ccc2c1Oc1ccc(/C=C/C(=O)O)cc1` [Example 25, (S,E)-3-(4-((6-hydroxy-2-(2-(1-hydroxyethyl)phenyl)-benzo[b]thiophen-3-yl)oxy)phenyl)acrylic acid]: the 50% inhibitory concentration (IC50) stood at 179 nM. With `COc1ccc(-c2sc3cc(O)ccc3c2Oc2ccc(/C=C/C(=O)O)cc2)cc1` [Example 26, (E)-3-(4-((6-hydroxy-2-(4-methoxyphenyl)benzo[b]thiophen-3-yl)oxy)phenyl)acrylic acid], the IC50 came to 647 nM. `O=C(O)/C=C/c1ccc(Oc2c(-c3ccc(C(F)F)cc3)sc3cc(O)ccc23)cc1` [Example 27, (E)-3-(4-((2-(4-(difluoromethyl)phenyl)-6-hydroxybenzo[b]thiophen-3-yl)oxy)phenyl)acrylic acid]: the IC50 stood at 7970 nM. As for `C/C(=C\c1ccc(Oc2c(-c3ccc(O)cc3)sc3cc(O)ccc23)cc1)C(=O)O` [Example 28, (E)-3-(4-((6-hydroxy-2-(4-hydroxyphenyl)benzo[b]thiophen-3-yl)oxy)phenyl)-2-methylacrylic acid], the IC50 stood at 886 nM. On to `O=C(O)/C=C/c1ccc(Oc2c(-c3ccc(O)cc3)sc3cc(O)ccc23)cn1` [Example 29, (E)-3-(5-((6-hydroxy-2-(4-hydroxyphenyl)benzo[b]thiophen-3-yl)oxy)pyridin-2-yl)acrylic acid], for which the IC50 is 7750 nM. Consider `CN(c1ccc(/C=C/C(=O)O)cc1)c1c(-c2ccc(O)cc2)sc2cc(O)ccc12` [Example 30, (E)-3-(4-((6-hydroxy-2-(4-hydroxyphenyl)benzo[b]thiophen-3-yl)(methyl)amino)phenyl)acrylic acid], for which the IC50 worked out at 3400 nM.

Regarding `O=C(/C=C/c1ccc(Oc2c(-c3ccc(O)cc3)sc3cc(O)ccc23)cc1)NCCC(F)(F)F` [Example 31, (E)-3-(4-((6-hydroxy-2-(4-hydroxyphenyl)benzo[b]thiophen-3-yl)oxy)phenyl)-N-(3,3,3-trifluoropropyl)acrylamide], the IC50 came to 10 nM.
